Among the data in patent publication US11986532B2 (Arvinas Operations, Inc., priority 2021, dated 2024) are Dmax and DC50 values, retold here.

The assay has as its target T1, BCL6 (Homo sapiens, UniProt P41182).
T1 construct: endogenous in cells; host or cells: T47D breast cancer epithelial cells
In words: Immunofluorescence protocol for high content imaging of BCL6 (degradation) in T47D cells, 3 days compound treatment. The note with it: for Dmax: T47D, read-out: Mean Dmax (%)** category; for DC50: read-out: Mean DC50 (nM)* category. Format: cell-based. A digest of the protocol:
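For degradation, compound series (3-fold, 11 points, top 0.1 or 1 μM final) were added to adherent T47D cultures for 3 days. BCL6 immunostaining used a rabbit antibody at 1:300 and an Alexa-488 secondary, with imaging at 10× magnification.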

What is called Dmax is the greatest extent of degradation seen. By DC50 is commonly meant the concentration giving 50% degradation.

Regarding `CNC(=O)COc1cc2cc(Nc3nc(N4CCC(O[C@H]5C[C@H](N6CCN(c7cc8c(cc7Cl)C(=O)N([C@H]7CCC(=O)NC7=O)C8)[C@H](C)C6)C5)CC4)ncc3Cl)ccc2n(C(C)C)c1=O` [Compound 269, 2-({6-[(5-chloro-2-{4-[(1r,3r)-3-[(3R)-4-{6-chloro-2-[(3S)-2,6-dioxopiperidin-3-yl]-1-oxo-2,3-dihydro-1H-isoindol-5-yl}-3-methylpiperazin-1-yl]cyclobutoxy]piperidin-1-yl}pyrimidin-4-yl)amino]-2-oxo-1-(propan-2-yl)-1,2-dihydroquinolin-3-yl}oxy)-N-methylacetamide], the Dmax was at least 70% and the DC50 is below 10 nM.
On the same counts, the results for `CNC(=O)COc1cc2cc(Nc3nc(N4CCC(CN5CCC6(CC5)CN(c5ccc7c(c5C(C)C)CN(C5CCC(=O)NC5=O)C7=O)C6)CC4)ncc3Cl)ccc2n(C(C)C)c1=O` (stereo not drawn) [Compound 272, 2-{[6-({5-chloro-2-[4-({2-[2-(2,6-dioxopiperidin-3-yl)-1-oxo-4-(propan-2-yl)-2,3-dihydro-1H-isoindol-5-yl]-2,7-diazaspiro[3.5]nonan-7-yl}methyl)piperidin-1-yl]pyrimidin-4-yl}amino)-2-oxo-1-(propan-2-yl)-1,2-dihydroquinolin-3-yl]oxy}-N-methylacetamide] are 50 to 70% and below 10 nM.
On to `CNC(=O)COc1cc2cc(Nc3nc(N4CCC(O[C@H]5C[C@H](N6CCN(c7cc(F)c8c(c7F)CN(C7CCC(=O)NC7=O)C8=O)CC6)C5)CC4)ncc3Cl)ccc2n(C(C)C)c1=O` (stereo partly drawn) [Compound 273, 2-({6-[(5-chloro-2-{4-[(1r,3r)-3-{4-[2-(2,6-dioxopiperidin-3-yl)-4,7-difluoro-1-oxo-2,3-dihydro-1H-isoindol-5-yl]piperazin-1-yl}cyclobutoxy]piperidin-1-yl}pyrimidin-4-yl)amino]-2-oxo-1-(propan-2-yl)-1,2-dihydroquinolin-3-yl}oxy)-N-methylacetamide], for which the Dmax was 50 to 70% and the DC50 is below 10 nM.
With `CNC(=O)COc1cc2cc(Nc3nc(N4CCC(O[C@H]5C[C@H](N6CCN(c7cc(F)c(F)c8c7C(=O)N(C7CCC(=O)NC7=O)C8)CC6)C5)CC4)ncc3Cl)ccc2n(C(C)C)c1=O` (stereo partly drawn) [Compound 274, 2-({6-[(5-chloro-2-{4-[(1r,3r)-3-{4-[2-(2,6-dioxopiperidin-3-yl)-6,7-difluoro-3-oxo-2,3-dihydro-1H-isoindol-4-yl]piperazin-1-yl}cyclobutoxy]piperidin-1-yl}pyrimidin-4-yl)amino]-2-oxo-1-(propan-2-yl)-1,2-dihydroquinolin-3-yl}oxy)-N-methylacetamide], the greatest degradation seen (Dmax) is below 50% and the half-maximal degradation concentration (DC50) lay in the range of 10 to 50 nM.
Consider `CNC(=O)COc1cc2cc(Nc3nc(N4CCC(O[C@H]5C[C@H](N6CCC(O)(c7ccc8c(c7)C(=O)N(C7CCC(=O)NC7=O)C8=O)CC6)C5)CC4)ncc3Cl)ccc2n(C(C)C)c1=O` (stereo partly drawn) [Compound 275, 2-({6-[(5-chloro-2-{4-[(1r,3r)-3-{4-[2-(2,6-dioxopiperidin-3-yl)-1,3-dioxoisoindol-5-yl]-4-hydroxypiperidin-1-yl}cyclobutoxy]piperidin-1-yl}pyrimidin-4-yl)amino]-1-isopropyl-2-oxoquinolin-3-yl}oxy)-N-methylacetamide], for which the Dmax was at least 70% and the DC50 was below 10 nM.
As to `CNC(=O)COc1cc2cc(Nc3nc(N4CCC(O[C@H]5C[C@H](N6CCC(F)(c7ccc8c(c7)C(=O)N(C7CCC(=O)NC7=O)C8=O)CC6)C5)CC4)ncc3Cl)ccc2n(C(C)C)c1=O` (stereo partly drawn) [Compound 276, 2-({6-[(5-chloro-2-{4-[(1r,3r)-3-{4-[2-(2,6-dioxopiperidin-3-yl)-1,3-dioxoisoindol-5-yl]-4-fluoropiperidin-1-yl}cyclobutoxy]piperidin-1-yl}pyrimidin-4-yl)amino]-1-isopropyl-2-oxoquinolin-3-yl}oxy)-N-methylacetamide], the Dmax was 50 to 70% and the DC50 was in the range of 10 to 50 nM.
Regarding `CNC(=O)COc1cc2cc(Nc3nc(N4CCC(O[C@H]5C[C@H](N6CCC(O)(c7ccc8c(c7F)CN(C7CCC(=O)NC7=O)C8=O)CC6)C5)CC4)ncc3Cl)ccc2n(C(C)C)c1=O` (stereo partly drawn) [Compound 277, 2-({6-[(5-chloro-2-{4-[(1r,3r)-3-{4-[2-(2,6-dioxopiperidin-3-yl)-4-fluoro-1-oxo-2,3-dihydro-1H-isoindol-5-yl]-4-hydroxypiperidin-1-yl}cyclobutoxy]piperidin-1-yl}pyrimidin-4-yl)amino]-2-oxo-1-(propan-2-yl)-1,2-dihydroquinolin-3-yl}oxy)-N-methylacetamide], the Dmax fell in the range of 50 to 70% and the DC50 is below 10 nM.
For the molecule `CNC(=O)COc1cc2cc(Nc3nc(N4CCC(O[C@H]5C[C@H](N6CCC(F)(c7ccc8c(c7F)CN(C7CCC(=O)NC7=O)C8=O)CC6)C5)CC4)ncc3Cl)ccc2n(C(C)C)c1=O` (stereo partly drawn) [Compound 278, 2-({6-[(5-chloro-2-{4-[(1r,3r)-3-{4-[2-(2,6-dioxopiperidin-3-yl)-4-fluoro-1-oxo-2,3-dihydro-1H-isoindol-5-yl]-4-fluoropiperidin-1-yl}cyclobutoxy]piperidin-1-yl}pyrimidin-4-yl)amino]-2-oxo-1-(propan-2-yl)-1,2-dihydroquinolin-3-yl}oxy)-N-methylacetamide], the Dmax was at least 70% and the DC50 was below 10 nM.
Take `CNC(=O)COc1cc2cc(Nc3nc(N4CCC(O[C@H]5C[C@H](N6CC[C@H](c7ccc8c(c7F)CN(C7CCC(=O)NC7=O)C8=O)[C@H](OC)C6)C5)CC4)ncc3Cl)ccc2n(C(C)C)c1=O` (stereo partly drawn) [Compound 279, 2-({6-[(5-chloro-2-{4-[(1r,3r)-3-[(3S,4R)-4-[2-(2,6-dioxopiperidin-3-yl)-4-fluoro-1-oxo-2,3-dihydro-1H-isoindol-5-yl]-3-methoxypiperidin-1-yl]cyclobutoxy]piperidin-1-yl}pyrimidin-4-yl)amino]-2-oxo-1-(propan-2-yl)-1,2-dihydroquinolin-3-yl}oxy)-N-methylacetamide]: the Dmax was at least 70% and the DC50 was below 10 nM.
With `CNC(=O)COc1cc2cc(Nc3nc(N4CCC(O[C@H]5C[C@H](N6CCC(c7cc(F)c8c(c7)C(=O)N(C7CCC(=O)NC7=O)C8)C(F)C6)C5)CC4)ncc3Cl)ccc2n(C(C)C)c1=O` (stereo partly drawn) [Compound 281, 2-({6-[(5-chloro-2-{4-[(1r,3r)-3-{4-[2-(2,6-dioxopiperidin-3-yl)-7-fluoro-3-oxo-2,3-dihydro-1H-isoindol-5-yl]-3-fluoropiperidin-1-yl}cyclobutoxy]piperidin-1-yl}pyrimidin-4-yl)amino]-2-oxo-1-(propan-2-yl)-1,2-dihydroquinolin-3-yl}oxy)-N-methylacetamide], the Dmax was below 50% and the DC50 was in the range of 10 to 50 nM.
Take `CNC(=O)COc1cc2cc(Nc3nc(N4CCC(O[C@H]5C[C@H](N6CC[C@H](c7ccc8c(c7F)CN(C7CCC(=O)NC7=O)C8=O)[C@H](O)C6)C5)CC4)ncc3Cl)ccc2n(C(C)C)c1=O` (stereo partly drawn) [Compound 282, 2-({6-[(5-chloro-2-{4-[(1r,3r)-3-[(3S,4R)-4-[2-(2,6-dioxopiperidin-3-yl)-4-fluoro-1-oxo-2,3-dihydro-1H-isoindol-5-yl]-3-hydroxypiperidin-1-yl]cyclobutoxy]piperidin-1-yl}pyrimidin-4-yl)amino]-2-oxo-1-(propan-2-yl)-1,2-dihydroquinolin-3-yl}oxy)-N-methylacetamide]: the Dmax was in the range of 50 to 70% and the DC50 was below 10 nM.
Take `CNC(=O)COc1cc2cc(Nc3nc(N4CCC(O[C@H]5C[C@H](N6CCC7(c8ccc9c(c8F)CN(C8CCC(=O)NC8=O)C9=O)CC7C6)C5)CC4)ncc3Cl)ccc2n(C(C)C)c1=O` (stereo partly drawn) [Compound 283, 2-({6-[(5-chloro-2-{4-[(1r,3r)-3-{6-[2-(2,6-dioxopiperidin-3-yl)-4-fluoro-1-oxo-2,3-dihydro-1H-isoindol-5-yl]-3-azabicyclo[4.1.0]heptan-3-yl}cyclobutoxy]piperidin-1-yl}pyrimidin-4-yl)amino]-2-oxo-1-(propan-2-yl)-1,2-dihydroquinolin-3-yl}oxy)-N-methylacetamide]: the Dmax was at least 70% and the DC50 was below 10 nM.
Consider `CNC(=O)COc1cc2cc(Nc3nc(N4CCC(O[C@H]5C[C@H](N6CC[C@H](c7ccc8c(c7F)CN(C7CCC(=O)NC7=O)C8=O)[C@@H](O)C6)C5)CC4)ncc3Cl)ccc2n(C(C)C)c1=O` (stereo partly drawn) [Compound 284, 2-({6-[(5-chloro-2-{4-[(1r,3r)-3-[(3R,4R)-4-[2-(2,6-dioxopiperidin-3-yl)-4-fluoro-1-oxo-2,3-dihydro-1H-isoindol-5-yl]-3-hydroxypiperidin-1-yl]cyclobutoxy]piperidin-1-yl}pyrimidin-4-yl)amino]-2-oxo-1-(propan-2-yl)-1,2-dihydroquinolin-3-yl}oxy)-N-methylacetamide], for which the Dmax lay within 50 to 70% and the DC50 was below 10 nM.
`CNC(=O)COc1cc2cc(Nc3nc(N4CCC(F)(CN5CC(N6CCC(c7ccc8c(c7F)CN(C7CCC(=O)NC7=O)C8=O)CC6)C5)CC4)ncc3Cl)ccc2n(C(C)C)c1=O` (stereo not drawn) [Compound 285, 2-({6-[(5-chloro-2-{4-[(3-{4-[2-(2,6-dioxopiperidin-3-yl)-4-fluoro-1-oxo-2,3-dihydro-1H-isoindol-5-yl]piperidin-1-yl}azetidin-1-yl)methyl]-4-fluoropiperidin-1-yl}pyrimidin-4-yl)amino]-2-oxo-1-(propan-2-yl)-1,2-dihydroquinolin-3-yl}oxy)-N-methylacetamide]: the Dmax is at least 70% and the DC50 was below 10 nM.
On the same counts, the results for `CNC(=O)COc1cc2cc(Nc3nc(N4CCC(O[C@H]5C[C@H](N6CCN(CC7CCN(c8ccc9c(c8F)CN(C8CCC(=O)NC8=O)C9=O)CC7)CC6)C5)CC4)ncc3Cl)ccc2n(C(C)C)c1=O` (stereo partly drawn) [Compound 286, 2-({6-[(5-chloro-2-{4-[(1r,3r)-3-[4-({1-[2-(2,6-dioxopiperidin-3-yl)-4-fluoro-1-oxo-2,3-dihydro-1H-isoindol-5-yl]piperidin-4-yl}methyl)piperazin-1-yl]cyclobutoxy]piperidin-1-yl}pyrimidin-4-yl)amino]-2-oxo-1-(propan-2-yl)-1,2-dihydroquinolin-3-yl}oxy)-N-methylacetamide] are 50 to 70% and below 10 nM.
